Assay results: patent publication US10888536B1, “Method of improvement of insulin sensitivity in obese patients” (FOOYIN UNIVERSITY, priority 2019, dated 2021)

Legend:
[1] = test system: mouse macrophage (J774A.1 cell line); test: ATP level in J774A.1 cells by ATP luminometer (Trial A); type: cell-based
Procedure: To evaluate propanamide can increase of ATP synthesis, mouse macrophage (J774A.1 cell line) was used as the cell model. The J774A.1 cells without treatment were used as group A0. ATP level in the J774A.1 cells of groups A0-A5 were analyzed by ATP luminometer, respectively. The unit of ATP level is relative light unit (R.L.U).

[2] = test system: TNF-α; test: TNF-α level in medium of J774A.1 cells with or without LPS (Trial B); type: cell-based, mouse
Procedure: The increase of cellular ATP can change the activity of macrophage, inhibiting the production of the proinflammatory cytokine, TNF-α, as well as the inflammation. After 15 minutes, 200 ng/ml lipopolysaccharide (LPS) was used to induce the inflammation in the J774A.1 cells of groups B1, B3 and B5. The medium of the J774A.1 cells was collected, and the TNF-α level in the medium was detected by a commercial kit.

[3] = test system: obese mice; test: Fasting blood glucose in high fat diet obese mice (Trial C); type: in vivo, Male ICR mice; details: high fat diet containing 3 ppm propanamide for 2 weeks (group C2), fasted 18 hours (FIG. 5)
From the text: Male ICR mice were used as the animal model in Trial (C). […] The obese mice of group C1 were then fed by the high fat diet for another 2 weeks, while the obese mice of group C2 were fed by the high fat diet containing 3 ppm propanamide for further 2 weeks. The normal mice of group C0 were fed by normal diet for 19 weeks. After 19 weeks, the mice of groups C0-C2 were sacrificed, and the effect of propanamide on reducing the accumulation of visceral fat was estimated by weight of epididymal fat (% of body weight). Before being sacrificed, the mice of groups C0-C2 were fasted for 18 hours, and the levels of fasting blood glucose of the mice were measured. Referring to FIG. 5, the levels of fasting blood glucose of the obese mice fed by the high fat diet (group C1) were higher than that of the normal mice fed by the normal diet (group C0).

[4] = test system: obese rats; test: Oral glucose tolerance test (OGTT) in high fat diet obese rats (Trial D); type: in vivo, Wistar male rats
Procedure: (§1) Wistar male rats were used as the animal model in Trial (D). […] The obese rats of group D1 were then fed by the high fat diet without propanamide for another 4 weeks (total 23 weeks), while the obese rats of group D2 and D3 were fed by the high fat diet respectively containing 1 ppm and 3 ppm propanamide for further 4 weeks, The normal rats of group D0 were fed by normal diet for 23 weeks (total 23 weeks). At the 22th week, the oral glucose tolerance tests (OGTT) were performed as following: the rats of groups D0-D3 were fasted for 18 hours, and then were administered a 20% glucose solution (2 g glucose/kg body weight) by gavage. Blood samples were collected and the glucose concentrations were detected at 0, 30, 60, 90, and 120 minutes after glucose loading.

[5] = test system: obese rats; test: Fasting serum insulin in high fat diet obese rats (Trial D); type: in vivo, Wistar male rats; details: 1 and 3 ppm propanamide in high fat diet for 4 weeks (groups D2 and D3), fasted 18 hours, 23rd week (FIG. 7)
Procedure: as §1, with “loading. At 23th week, the rats of groups D0-D3 were fasted for 18 hours before scarification, and the serum were analyzed the level of insulin.” for “loading.”

## CCC(N)=O [propanamide]
[1]; concentration below 4 μM, 6 hours (FIG. 2)
  dose dependence of ATP production: dose-dependent response
[1]; propanamide 0.04-400 μM, 6 hours, vs untreated cells (FIG. 2)
  ATP level in the J774A.1 cells: effectively elevate ATP level
[2]; propanamide 4 and 40 μM (groups B2 and B4), no LPS (FIG. 3)
  production of TNF-α not induced by LPS: also inhibit the production of TNF-α
[2]; propanamide 4 and 40 μM (groups B3 and B5), 200 ng/ml LPS after 15 minutes (FIG. 3)
  production of TNF-α induced by LPS: effectively inhibit the production of TNF-α induced by LPS
[3]
  levels of fasting blood glucose: decreased significantly
[4]; 1 and 3 ppm propanamide in high fat diet (groups D2 and D3) (FIG. 6b)
  area under curve (AUC) of blood glucose in OGTT: decreased significantly
[4]; 1 ppm and 3 ppm propanamide in high fat diet (groups D2 and D3), 120 minutes after glucose loading (FIG. 6a)
  blood glucose during OGTT vs group D1: significantly lower
[4]; 1 ppm propanamide in high fat diet (group D2), 90 minutes to 120 minutes after glucose loading (FIG. 6a)
  blood glucose in untreated obese rats (group D1) relative to group D2 during OGTT: evidently higher
[5]
  fasting serum insulin: reduced to normal level
